Ends that are not written are not given here.
Tests used:
[1] = test system: humans with acute myocardial infarction; assay: Infusion at reperfusion in humans with acute myocardial infarction; format: in vivo
From the text: Lower panel illustrates individual data. […] Lower panel illustrates individual data.
(§1) This mechanism involves improved ventricular relaxation which is known to be most sensitive to ATP depletion.

HIF-1a = HIF-1a induction in normal hearts; format: in vivo; details: intravenous continuous administration
From the text: The induction of this cyto-protective program is beneficial in the face of subsequent ischemic injury in allografts. p38 MAP kinase activation has been associated with the stabilization of praline residues which otherwise target the HIF-1a subunits to ubiquinization. The stabilization allows the subunits to form heterodimers which active a gene program of cytoprotection.

[2] = test system: conscious pigs with biventricular failure; assay: Chronic conscious pig model of biventricular failure with impaired renal blood flow; format: in vivo; details: short term (2 hours) infusion, 1.5 pmol/kg/min
From the text: FIG. 4, comprising FIG. 4A and 4B show impaired renal blood flow but not cardiac output in pigs with biventricular failure.
There is a model of biventricular heart failure in conscious pigs that is associated with reductions in renal blood flow and function. FIG. 3 illustrates the model and the perturbation in renal blood flow. This is an important model of cardio-renal syndrome in which renal and cardiac injury are found together. FIG. 4 illustrates a 50% reduction in renal blood flow without a reduction in cardiac output in conscious pigs with biventricular failure.

[3] = test system: conscious dogs with pacing-induced DCM; assay: Myocardial glucose uptake during hyperinsulinemic euglycemic clamp in conscious dogs with pacing-induced DCM; format: in vivo; details: basal and insulin-stimulated
From the text: This provides glycolytic ATP without further increases in mitochondrial ROS production. […] This provides the rationale for the use of the native peptide in the treatment of post-ischemic allograft injury.

[4] = test system: patients with Class 3-4 heart failure; assay: Administration to patients with Class 3-4 heart failure; format: in vivo, humans; details: administered for 5 weeks
conscious dogs = assay: Recovery after coronary artery occlusion and reperfusion in conscious dogs; format: in vivo; details: 1.5 pmol/kg/min at the time of reperfusion following coronary artery occlusion
From the text: CBF and respective regional wall thickening responses to CAO and CAR. The CBF response (top) is characterized by reactive hyperemia followed by gradual return of flow to pre-occlusion levels in both control and GLP-1-treated animals. The different patterns of recovery of regional contractile function between the two groups are illustrated (bottom).
as §1

| Substance | requirement for inotropic and pressure support ([1]; GLP-1 infusion, population not given) | HIF-1a mRNA (HIF-1a) | expression of HIF-1a inducible genes, heme-oxygenase-1 (HO-1) (HIF-1a) | GFR [2] | renal blood flow [2] | urinary sodium excretion [2] | myocardial glucose uptake [3] | peri-infarct and global LV function ([1]; 1.5 pmol/kg/min at the time of reperfusion, humans with acute myocardial infarction, versus patients on comparable therapies without GLP-1) | natriuresis [4] | recovery of left ventricular function (conscious dogs) |
| --- | --- | --- | --- | --- | --- | --- | --- | --- | --- | --- |
| Glucagon-like peptide-1 [GLP-1] | reduces the requirement for inotropic and pressure support | increases in HIF-1a mRNA | increased expression of HIF-1a inducible genes, heme-oxygenase-1 (HO-1) | improvement in GFR | returned renal blood flow to near normal levels | increased urinary sodium excretion | – | – | – | – |
| GLP-1 (9-36) amide (EGTFTSDVSSYLEGQAAKEFIAWLVKGR-NH2) | – | – | – | – | – | – | increase myocardial glucose uptake independent of an increase in circulating insulin | – | – | – |
| GLP-1 (7-36) amide (HAEGTFTSDVSSYLEGQAAKEFIAWLVKGR-NH2) | – | – | – | – | – | – | increase myocardial glucose uptake independent of an increase in circulating insulin | improved peri-infarct and global LV function | significant natriuresis that required reduction in diuretic doses | more rapid and complete recovery of left ventricular function |
